The values below come from patent US20070037785A1, “Novel dipeptidyl peptidase IV inhibitors used for functionally influencing different cells and treating immunological, infammatory, neuronal, and other diseases” (priority 2003, published 2007).

The structures appear in SMILES notation.

The target in the first assay is dipeptidyl peptidase IV (Homo sapiens, UniProt P27487). Nature of the assay: biochemical. The conditions noted are these: values marked with "*" are ID50 values; read-out: IC50DPIV, values marked with "*" = ID50.
Chain of dipeptidyl peptidase IV (P27487 whole entry, species assumed): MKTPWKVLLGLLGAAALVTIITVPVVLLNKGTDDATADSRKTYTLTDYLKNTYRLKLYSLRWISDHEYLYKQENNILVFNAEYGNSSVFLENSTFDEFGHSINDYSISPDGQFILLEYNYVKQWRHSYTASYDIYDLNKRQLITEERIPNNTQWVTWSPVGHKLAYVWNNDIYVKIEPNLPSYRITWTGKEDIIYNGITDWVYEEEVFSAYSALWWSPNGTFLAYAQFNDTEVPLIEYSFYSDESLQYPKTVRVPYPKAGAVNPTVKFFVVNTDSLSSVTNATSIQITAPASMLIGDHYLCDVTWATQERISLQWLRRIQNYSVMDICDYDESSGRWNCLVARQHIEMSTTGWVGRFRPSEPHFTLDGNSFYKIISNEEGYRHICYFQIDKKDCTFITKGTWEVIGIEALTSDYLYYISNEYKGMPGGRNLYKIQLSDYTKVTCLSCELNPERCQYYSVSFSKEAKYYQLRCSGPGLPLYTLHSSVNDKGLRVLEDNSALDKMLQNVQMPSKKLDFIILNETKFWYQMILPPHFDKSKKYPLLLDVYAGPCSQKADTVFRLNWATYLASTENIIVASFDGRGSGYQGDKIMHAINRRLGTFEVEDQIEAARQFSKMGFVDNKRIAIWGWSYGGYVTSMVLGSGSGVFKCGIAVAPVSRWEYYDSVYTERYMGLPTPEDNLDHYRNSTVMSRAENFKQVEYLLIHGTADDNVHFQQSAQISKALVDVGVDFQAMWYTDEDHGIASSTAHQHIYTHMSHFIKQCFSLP
On to `O=C(CNC(=O)c1cccc(F)c1)N/N=C/c1cc(Br)cc(Br)c1OC(=O)c1cccc(Br)c1` [D10.102], for which the IC50 was 91.9 µM.

On to `Cc1ccc(OCC(=O)N/N=C/c2c(Br)cc(Br)c(O)c2Br)c(Br)c1` [D10.106], for which the IC50 was 101 µM. Same read-out and setting: in the case of `CCOc1cccc(/C=N\NC(=O)c2ccco2)c1O` [D10.107] it was 103 µM; in that of `O=C(N/N=C/c1cc(Br)cc(Br)c1OC(=O)c1ccccc1)/C(=C/c1cccs1)NC(=O)c1ccccc1` [D10.110], 114 µM; in that of `O=C(N/N=C/c1ccc(O)c(O)c1)c1cccc([N+](=O)[O-])c1` [D10.111], 116 µM. The same measure, in the same setting: under `O=C(COc1ccccc1C(=O)N/N=C\c1ccc(O)c(O)c1)N/N=C/c1ccc(O)c(O)c1` [D10.113] stands 127 µM. Same read-out and setting: in the case of `CCn1c2ccccc2c2cc(/C=N/NC(=O)c3ccc([N+](=O)[O-])cc3)ccc21` [D10.116] it was 165 µM.

Take `COc1ccc(/C=C(\NC(=O)c2ccccc2)C(=O)N/N=C/c2ccc(OC)c(COc3ccc(C(=O)OCC(C)C)cc3)c2)cc1` [D10.117]: the IC50 came to 166 µM. Still for that read-out and setting: under `Cc1cc(Cl)ccc1OC(C)C(=O)N/N=C1/C(=O)Nc2ccc([N+](=O)[O-])cc21` (stereo not shown) [D10.118] stands 166 µM. The same measure, in the same setting: under `O=C(COc1c(O)cc(Br)cc1Br)N/N=C/c1ccc(O)c(O)c1` [D10.119] stands 177 µM; under `COc1ccc(OCC(=O)N/N=C/c2ccc(OC)c(Br)c2)c(Br)c1` [D10.120], 197 µM. Still for that read-out and setting: in the case of `O=C(CCCOc1ccc(Cl)cc1Cl)N/N=C1/C(=O)Nc2ccc(Br)cc21` [D10.121] it was 204 µM. Consider `C/C(=N\NC(=O)CNC(=O)c1ccc(Cl)cc1)c1ccc2ccccc2c1` [D10.122], for which the IC50 amounted to 208 µM. Still for that read-out and setting: in the case of `CCOc1cc(/C=N/NC(=O)c2ccccc2)ccc1O` [D10.123] it was 218 µM; in that of `CCCN(CCC)c1ccc(/C=N/NC(=O)COc2ccc(C)cc2[N+](=O)[O-])cc1` [D10.124], 225 µM; in that of `Cc1ccc(C)c(NCC(=O)N/N=C\c2cc([N+](=O)[O-])ccc2N2CCOCC2)c1` [D10.125], 233 µM.

Regarding `O=C(N/N=C/c1cccc([N+](=O)[O-])c1)c1ccc(NCc2ccccc2)cc1` [D10.126], the IC50 is 234 µM. On the same count and under the same terms, in the case of `COc1cc(/C=N/NC(=O)c2ccccc2[N+](=O)[O-])cc(OC)c1OC` [D10.128] it was 241 µM; in that of `COC(=O)c1ccc(/C=N/NC(=O)c2cc(C34CC5CC(CC(C5)C3)C4)n[nH]2)cc1` [D10.129], 243 µM; in that of `O=C(N/N=C/c1ccccc1O)c1cc(-c2ccc3ccccc3c2)n[nH]1` [D10.130], 255 µM.

On to `Cc1ccc(OCC(=O)N/N=C/c2ccccc2OC(=O)c2ccc([N+](=O)[O-])cc2)cc1` [D10.131], for which the IC50 was 257 µM. Regarding `CCOc1cc(/C=N/NC(=O)c2nnn(-c3nonc3N)c2-c2ccccc2)ccc1OC` [D10.132], the IC50 was determined as 271 µM. Still for that read-out and setting: under `O=C(N/N=C/c1cc(Br)ccc1OC(=O)c1ccc([N+](=O)[O-])cc1)/C(=C\c1ccc2c(c1)OCO2)NC(=O)c1ccccc1` [D10.133] stands 272 µM; under `COc1ccc(/C=N/NC(=O)C(=O)Nc2ccc(Cl)cc2C)c(OC)c1` [D10.134], 275 µM. Take `Nc1nonc1-n1nnc(C(=O)N/N=C/c2ccccc2Br)c1-c1ccc([N+](=O)[O-])cc1` [D10.135]: the IC50 turned out to be 314 µM. The same measure, in the same setting: under `Cc1cc(C(=O)N/N=C\c2c[nH]c3ccccc23)c(C)o1` [D10.136] stands 340 µM; under `O=C(NNC(=O)c1ccc([N+](=O)[O-])cc1)c1ccc(N2C(=O)c3ccc(C(=O)NNC(=O)c4ccc([N+](=O)[O-])cc4)cc3C2=O)cc1` [D10.137], 402 µM; under `CCN(CC)c1ccc(/C=C(/NC(=O)c2ccccc2)C(=O)N/N=C/c2ccc(-c3ccc([N+](=O)[O-])cc3)o2)cc1` [D10.138], 418 µM. Same read-out and setting: under `COc1ccc(S(=O)(=O)N(CC(=O)N/N=C/c2ccc(C(C)C)cc2)c2cc(Cl)ccc2OC)cc1OC` [D10.139] stands 432 µM; under `COc1cccc(/C=N/NC(=O)c2ccc(OCc3cccc(Br)c3)cc2)c1OC` [D10.140], 458 µM; under `CSc1ccc(/C=N/NC(=O)c2cccs2)cc1` [D10.141], 498 µM. On the same count and under the same terms, under `N/C(=N/[N+](=O)[O-])N/N=C/c1ccc(-c2cccc(Cl)c2Cl)o1` [D10.142] stands 609 µM; under `O=C(N/N=C/c1cccc(OC(=O)c2ccccc2Cl)c1)/C(=C\c1ccc2c(c1)OCO2)NC(=O)c1ccccc1` [D10.143], 656 µM; under `Cc1ccccc1NC(=O)C(=O)N/N=C/c1cccc(Cl)c1` [D10.144], 775 µM. Consider `O=C(Nc1cccc(/N=C/c2cc(/N=N\c3ccccc3Cl)ccc2O)c1)c1ccco1` [D11.001], for which the IC50 turned out to be 2.5 µM. Still for that read-out and setting: in the case of `Cn1c(=O)c2c(nc(NCC(O)CO)n2Cc2ccccc2Cl)n(C)c1=O` (stereo not shown) [D12.040] it was 83.3 µM. Same read-out and setting: in the case of `COC(=O)c1cccc(NC(=O)/C(=C\c2ccc3c(c2)OCO3)NC(=O)c2ccc(Br)o2)c1` [D12.043] it was 92.2 µM; in that of `COc1ccc(/C=C2\C(=O)N(c3ccccc3)C3=C2C(c2ccc(Br)cc2)N(c2ccccc2)C3=O)cc1` (stereo not shown) [D12.047], 198 µM.

Take `CCCn1c(N2CCN(CC(=O)Nc3c(C(=O)OCC)[nH]c4ccc(F)cc34)CC2)nc2c1c(=O)[nH]c(=O)n2C` [D13.004]: the IC50 stood at 69.8 µM.

As for `CCOC(=O)CC(N)c1ccc(OC)cc1` (stereo not shown) [D13.006], the IC50 worked out at 83.3 µM.

Turning to `CN(C)c1ccc(C2C3C(=O)N(c4ccccc4)C(=O)C3ON2c2ccc(Cl)cc2)cc1` (stereo not shown) [D13.007], the IC50 came to 344 µM. As for `CCC(O)(CC)C(=O)NNc1ccc(C)cc1C` [D14.001], the IC50 was 1.2 µM. Still for that read-out and setting: in the case of `O=C(Nc1cccc(/N=C/c2cc(/N=N\c3ccccc3Cl)ccc2O)c1)c1ccco1` [D14.002] it was 2.5 µM; in that of `CCC(O)(CC)C(=O)NN(C(=O)CNS(=O)(=O)c1ccc(C)cc1)c1ccccc1` [D14.007], 456 µM.

The same assay, now with this note: values without "*" = IC-50; read-out: IC50DPIV.
Regarding `COc1ccc(OCC(=O)N/N=C\C(C)=C/c2ccc(/C=C(C)\C=N/NC(=O)COc3ccc(OC)cc3Br)cc2)c(Br)c1` [D10.101], the IC50 amounted to 91.3 µM. The same measure, in the same setting: in the case of `O=C(CNC(=O)C(c1ccccc1)c1ccccc1)N/N=C/c1ccc(OC(=O)c2cccc(F)c2)cc1` [D10.103] it was 93.3 µM; in that of `COc1ccc(OCC(=O)N/N=C/c2c(Br)cc(Br)c(O)c2Br)c(Br)c1` [D10.105], 99.4 µM; in that of `COc1cccc(/C=N/NC(=O)c2cc(-c3cccc([N+](=O)[O-])c3)n[nH]2)c1O` [D10.108], 110 µM. Same read-out and setting: in the case of `COc1ccc(OCC(=O)N/N=C/c2c(Br)cc(Br)c(O)c2Br)cc1` [D10.109] it was 113 µM. Still for that read-out and setting: in the case of `O=C(Nc1cccc(/N=C/c2cc(I)cc(I)c2O)c1)c1ccco1` [D11.002] it was 9.2 µM; in that of `Cc1csc(/C(=N\OC(=O)c2ccc(Br)o2)C(N)=O)n1` [D11.003], 14 µM. Regarding `C/C(=N/OC(=O)C(C)(C)C)c1cc2ccccc2oc1=O` [D11.004], the IC50 was 14.1 µM. The same measure, in the same setting: in the case of `CCCC(=O)O/N=C1/C(=O)N(c2ccccc2)c2ccccc21` [D11.006] it was 15.2 µM.

As for `CCCC(=O)O/N=C(/C)c1cc2ccccc2oc1=O` [D11.007], the IC50 amounted to 18.9 µM. For `Cc1[nH]c2ccccc2c1/C=N/OC(=O)C1CC1` [D11.008], the IC50 worked out at 30 µM. The same measure, in the same setting: under `Cc1csc(/C(=N\OC(=O)c2ccco2)C(N)=O)n1` [D11.009] stands 32.8 µM; under `CCc1c(C)[nH]c2c1/C(=N/OC(=O)C(C)C)CCC2` [D11.010], 43.8 µM.

On to `COC(=O)O/N=C(/N)c1nonc1N` [D11.011], for which the IC50 is 44.3 µM. As for `Cn1c(=O)c2c(nc(NCCCCO)n2Cc2ccccc2Cl)n(C)c1=O` [D12.002], the IC50 was 16.2 µM. In the case of `CC1CCN(C(=O)/C(=C\c2ccco2)NC(=O)c2ccc(Cl)cc2)CC1` [D12.004], the IC50 is 18.5 µM.

With `CN(C)c1ccc(C2C=C(Nc3ccccc3)C(=O)N2c2ccccc2)cc1` (stereo not shown) [D12.006], the IC50 worked out at 20.4 µM. Still for that read-out and setting: under `CCCn1c(N2CCN(CC(=O)c3c[nH]c4ccccc34)CC2)nc2c1c(=O)[nH]c(=O)n2C` [D12.012] stands 30.8 µM; under `O=C(Nc1c[nH]c(=O)[nH]c1=O)c1ccc2c(c1)C(=O)N(c1ccc(C(=O)c3ccccc3)cc1)C2=O` [D12.016], 38.2 µM. Same read-out and setting: under `CCOC(=O)c1c(C)oc2c1c1c(c3ccccc32)OCN(C2CCS(=O)(=O)C2)C1` (stereo not shown) [D12.017] stands 34.2 µM; under `Cc1ccc(C(=O)N/C(=C\c2ccco2)C(=O)N2CCOCC2)cc1C` [D12.025], 46.5 µM. On the same count and under the same terms, under `CCCCOC(=O)c1cc(-c2ccc(/C=C3/C(=O)N(CC(C)O)C(=O)C(C#N)=C3C)o2)ccc1Cl` (stereo not shown) [D12.027] stands 49 µM; under `CC(=O)Oc1ccc2oc(=O)c3c(c2c1)CCCN3C(C)=O` [D12.029], 59.4 µM; under `CCOC(=O)c1n[nH]c2c1CN(c1ccc([N+](=O)[O-])cc1)C2=O` [D12.031], 54.5 µM. `O=C(N/N=C/c1cc(Br)c(O)c(Br)c1O)/C(=C\c1ccc2c(c1)OCO2)NC(=O)c1ccccc1` [D12.032]: the IC50 was determined as 60 µM.

In the case of `COC(=O)C1=CN(N(C(C)=O)C(C)=O)C(=O)CC1` [D12.033], the IC50 came out at 60.7 µM. The same measure, in the same setting: under `CCCOC(=O)c1cc(-c2ccc(/C=C3\C(=O)NC(=O)C(C#N)=C3C)o2)ccc1Cl` [D12.034] stands 65.3 µM.

As to `Cc1ccc(C(=O)N/C(=C/c2ccco2)C(=O)N(C)C)cc1` [D12.038], the IC50 was 47.7 µM. On the same count and under the same terms, under `Nc1nonc1-n1nnc(C(=O)NN=C2c3ccccc3-c3ccccc32)c1-c1ccccc1` [D13.001] stands 10.1 µM.

Consider `COCC(=O)CC(N)c1ccc(C)cc1` (stereo not shown) [D13.002], for which the IC50 was 23.3 µM. The same measure, in the same setting: in the case of `CC(N)C(CC(=O)O)c1ccccc1` (stereo not shown) [D13.003] it was 38 µM; in that of `CCOC(=O)CC(N)c1ccccc1Cl` (stereo not shown) [D13.005], 72.2 µM. The same measure, in the same setting: in the case of `CCC(O)(CC)C(=O)NNc1ccccc1C` [D14.003] it was 5.7 µM; in that of `O=C(NNC1=C(Cl)C(=O)C(Cl)(Cl)C1=O)c1ccccc1` [D14.004], 26.2 µM; in that of `CCC(O)(CC)C(=O)NNc1ccc(C)cc1` [D14.005], 26.7 µM.
